Values of other authors, collected in patent EP1479382A1, “Oral pharmaceutical compositions containing taxanes and methods for treatment employing the same” (IVAX Research, Inc., priority 1999, dated 2000).
Where two headings read alike, the source gives them in different places.

CC(=O)O[C@H]1C(=O)[C@@]2(C)[C@H]([C@H](OC(=O)c3ccccc3)[C@]3(O)C[C@H](OC(=O)[C@H](O)[C@@H](NC(=O)c4ccccc4)c4ccccc4)C(C)=C1C3(C)C)[C@]1(OC(C)=O)CO[C@@H]1C[C@@H]2O [paclitaxel]
inhibition of protein isoprenylation occurs at levels of (protein isoprenylation): about 0.03 µM
inhibition of protein isoprenylation occurs at levels of (protein isoprenylation; same level expressed in ng/ml): about 25 ng/ml
inhibition of tubulin disassembly occurs at levels of (tubulin): about 0.1 µM
inhibition of tubulin disassembly occurs at levels of (tubulin; same level expressed in ng/ml): about 85 ng/ml
